Source: patent US8258169B2, “Pyrazole-4-N-alkoxycarboxamides as microbiocides” (Syngenta Crop Protection, LLC, priority 2008, dated 2012)

Compound | melting point
CON(CCCc1c(Cl)cc(Cl)cc1Cl)C(=O)c1cn(C)nc1C(F)F [Compound 2.040, 3-difluoromethyl-1-methyl-1H-pyrazole-4-carboxylic acid methoxy-[3-(2,4,6-trichloro-phenyl)-propyl]-amide] | 95 to 96 °C
CCON(C(=O)c1cn(C)nc1C(F)F)C(C)Cc1c(Cl)cc(Cl)cc1Cl (centres unmarked) [Compound 1.032, 3-difluoromethyl-1-methyl-1H-pyrazole-4-carboxylic acid ethoxy-[1-methyl-2-(2,4,6-trichlorophenyl)-ethyl]-amide] | 111 to 114 °C
